According to publication PMC7162861, “Synthesis, cytotoxicity, pharmacokinetic profile, binding with DNA and BSA of new imidazo[1,2-a]pyrazine-benzo[d]imidazol-5-yl hybrids” (Scientific Reports, 2020):

Legend:
[1] = system: A549/ATCC; test: NCI cytotoxicity screen, Non-Small Cell Lung Cancer panel; format: cell-based; details: Homo sapiens; A549/ATCC; single dose 10 µM; negative = lethal; read-out: Percent growth inhibition
Description: (§1) Cytotoxicity was performed at National Cancer Institute (NCI), Bethesda, USA as per their protocols.

[2] = system: EXVX; test: as above; format: cell-based; details: Homo sapiens; EXVX; single dose 10 µM; negative = lethal; read-out: Percent growth inhibition
Description: as §1

[3] = system: HOP-62; test: as above; format: cell-based; details: Homo sapiens, single dose 10 µM, negative = lethal, read-out: Percent growth inhibition
Description: as §1

[4] = system: HOP-92; test: as above; format: cell-based; details: Homo sapiens, single dose 10 µM, negative = lethal, read-out: Percent growth inhibition
Description: as §1

[5] = system: NCI-H460; test: as above; format: cell-based; details: Homo sapiens, single dose 10 µM, negative = lethal, read-out: Percent growth inhibition
Description: as §1

[6] = system: NCI-522; test: as above; format: cell-based, human; details: Homo sapiens; NCI-522; single dose 10 µM; negative = lethal; read-out: Percent growth inhibition
Description: as §1

[7] = system: NCI-H226; test: as above; format: cell-based, human; details: Homo sapiens, single dose 10 µM, negative = lethal, read-out: Percent growth inhibition
Description: as §1

[8] = system: NCI-H23; test: as above; format: cell-based, human; details: Homo sapiens, single dose 10 µM, negative = lethal, read-out: Percent growth inhibition
Description: as §1

[9] = system: NCI-H322M; test: as above; format: cell-based, human; details: Homo sapiens, single dose 10 µM, negative = lethal, read-out: Percent growth inhibition
Description: as §1

[10] = system: COLO 205; test: NCI cytotoxicity screen, Colon Cancer panel; format: cell-based; details: Homo sapiens, single dose 10 µM, negative = lethal, read-out: Percent growth inhibition
Description: as §1

[11] = system: HCT-116; test: NCI cytotoxicity screen, Colon Cancer panel; format: cell-based; details: Homo sapiens, single dose 10 µM, negative = lethal, read-out: Percent growth inhibition
Description: as §1

[12] = system: HCT-15; test: NCI cytotoxicity screen, Colon Cancer panel; format: cell-based; details: Homo sapiens, single dose 10 µM, negative = lethal, read-out: Percent growth inhibition
Description: as §1

[13] = system: HT29; test: NCI cytotoxicity screen, Colon Cancer panel; format: cell-based; details: Homo sapiens, HT-29; HT29; single dose 10 µM; negative = lethal; read-out: Percent growth inhibition
Description: as §1

[14] = system: HCC-2998; test: NCI cytotoxicity screen, Colon Cancer panel; format: cell-based, human; details: Homo sapiens; HCC-2998; single dose 10 µM; negative = lethal; read-out: Percent growth inhibition
Description: as §1

[15] = system: KM12; test: NCI cytotoxicity screen, Colon Cancer panel; format: cell-based, human; details: Homo sapiens, single dose 10 µM, negative = lethal, read-out: Percent growth inhibition
Description: as §1

[16] = system: SW-620; test: NCI cytotoxicity screen, Colon Cancer panel; format: cell-based, human; details: Homo sapiens, single dose 10 µM, negative = lethal, read-out: Percent growth inhibition
Description: as §1

[17] = system: LOX IMVI; test: NCI cytotoxicity screen, Melanoma panel; format: cell-based, human; details: Homo sapiens, single dose 10 µM, negative = lethal, read-out: Percent growth inhibition
Description: as §1

[18] = system: M14; test: NCI cytotoxicity screen, Melanoma panel; format: cell-based, human; details: Homo sapiens, single dose 10 µM, negative = lethal, read-out: Percent growth inhibition
Description: as §1

[19] = system: UACC-62; test: NCI cytotoxicity screen, Melanoma panel; format: cell-based, human; details: Homo sapiens, single dose 10 µM, negative = lethal, read-out: Percent growth inhibition
Description: as §1

[20] = system: MALME-3M; test: NCI cytotoxicity screen, Melanoma panel; format: cell-based; details: Homo sapiens; MALME-3M; single dose 10 µM; negative = lethal; read-out: Percent growth inhibition
Description: as §1

[21] = system: MDA-MB-435; test: NCI cytotoxicity screen, Melanoma panel; format: cell-based; details: Homo sapiens, MDA-MB-435, read-out: Percent growth inhibition
Description: as §1

[22] = system: SK-MEL-28; test: NCI cytotoxicity screen, Melanoma panel; format: cell-based; details: Homo sapiens, single dose 10 µM, negative = lethal, read-out: Percent growth inhibition
Description: as §1

[23] = system: SK-MEL-2; test: NCI cytotoxicity screen, Melanoma panel; format: cell-based; details: Homo sapiens, single dose 10 µM, negative = lethal, read-out: Percent growth inhibition
Description: as §1

[24] = system: SK-MEL-5; test: NCI cytotoxicity screen, Melanoma panel; format: cell-based; details: Homo sapiens, single dose 10 µM, negative = lethal, read-out: Percent growth inhibition
Description: as §1

[25] = system: UACC-257; test: NCI cytotoxicity screen, Melanoma panel; format: cell-based; details: Homo sapiens, single dose 10 µM, negative = lethal, read-out: Percent growth inhibition
Description: as §1

[26] = system: IGROV1; test: NCI cytotoxicity screen, Ovarian Cancer panel; format: cell-based; details: Homo sapiens, IGROV-1, single dose 10 µM, negative = lethal, read-out: Percent growth inhibition
Description: as §1

[27] = system: NCI/ADR-RES; test: NCI cytotoxicity screen, Ovarian Cancer panel; format: cell-based; details: Homo sapiens, single dose 10 µM, negative = lethal, read-out: Percent growth inhibition
Description: as §1

[28] = system: OVCAR-8; test: NCI cytotoxicity screen, Ovarian Cancer panel; format: cell-based; details: Homo sapiens, single dose 10 µM, negative = lethal, read-out: Percent growth inhibition
Description: as §1

[29] = system: SK-OV-3; test: NCI cytotoxicity screen, Ovarian Cancer panel; format: cell-based; details: Homo sapiens, single dose 10 µM, negative = lethal, read-out: Percent growth inhibition
Description: as §1

[30] = system: 786-0; test: NCI cytotoxicity screen, Renal Cancer panel; format: cell-based, human; details: Homo sapiens, single dose 10 µM, negative = lethal, read-out: Percent growth inhibition
Description: as §1

[31] = system: TK-10; test: NCI cytotoxicity screen, Renal Cancer panel; format: cell-based, human; details: Homo sapiens, single dose 10 µM, negative = lethal, read-out: Percent growth inhibition
Description: as §1

[32] = system: ACHN; test: NCI cytotoxicity screen, Renal Cancer panel; format: cell-based; details: Homo sapiens, single dose 10 µM, negative = lethal, read-out: Percent growth inhibition
Description: as §1

[33] = system: CAKI-1; test: NCI cytotoxicity screen, Renal Cancer panel; format: cell-based; details: Homo sapiens; CAKI-1; single dose 10 µM; negative = lethal; read-out: Percent growth inhibition
Description: as §1

[34] = system: RXF 393; test: NCI cytotoxicity screen, Renal Cancer panel; format: cell-based; details: Homo sapiens, single dose 10 µM, negative = lethal, read-out: Percent growth inhibition
Description: as §1

[35] = system: SN12C; test: NCI cytotoxicity screen, Renal Cancer panel; format: cell-based; details: Homo sapiens, single dose 10 µM, negative = lethal, read-out: Percent growth inhibition
Description: as §1

[36] = system: UO-31; test: NCI cytotoxicity screen, Renal Cancer panel; format: cell-based; details: Homo sapiens, single dose 10 µM, negative = lethal, read-out: Percent growth inhibition
Description: as §1

[37] = system: BT-549; test: NCI cytotoxicity screen, Breast Cancer panel; format: cell-based; details: Homo sapiens, single dose 10 µM, negative = lethal, read-out: Percent growth inhibition
Description: as §1

[38] = system: HS 578 T; test: NCI cytotoxicity screen, Breast Cancer panel; format: cell-based; details: Homo sapiens; HS 578T; single dose 10 µM; negative = lethal; read-out: Percent growth inhibition
Description: as §1

[39] = system: MCF7; test: NCI cytotoxicity screen, Breast Cancer panel; format: cell-based; details: Homo sapiens, single dose 10 µM, negative = lethal, read-out: Percent growth inhibition
Description: as §1

[40] = system: MDA-MB-231/ATCC; test: NCI cytotoxicity screen, Breast Cancer panel; format: cell-based; details: Homo sapiens, MDA-MB-231, read-out: Percent growth inhibition
Description: as §1

[41] = system: MDA-MB-468; test: NCI cytotoxicity screen, Breast Cancer panel; format: cell-based; details: Homo sapiens, single dose 10 µM, negative = lethal, read-out: Percent growth inhibition
Description: as §1

[42] = system: T-47D; test: NCI cytotoxicity screen, Breast Cancer panel; format: cell-based; details: Homo sapiens, T47D, T-47D; single dose 10 µM; negative = lethal; read-out: Percent growth inhibition
Description: as §1

[43] = Experimental log P, shake-flask method; format: physicochemical; details: n-octanol/phosphate buffer pH 7.4, read-out: Exp. Log P
Description: Partition coefficients or experimental log P values of all synthesized compounds (9–23, 30 and 31) were calculated using the shake-flask method. Log P values were determined using n-octanol and phosphate buffer (pH = 7.4) at 10:1 ratio of volumes. Stock solutions (10^−3 M) of compounds were prepared in DMSO. Glass vials were used to make final solutions i.e. stock solution (250 µL) and phosphate buffer (125 µL). To record the absorbance, wavelength was selected based on λmax of the respective compound. Initial absorbance (Ai) for every compound was noted consuming the stock solution in the buffer phase. Now added n-octanol to every vial and shaken well using a mechanical shaker for 50 minutes. To get separation of both phases, glass vials were centrifuged for 35 min. at 2500 rpm. Then, the layer of octanol was separated from glass vial. The final absorbance (Af) of each compound was recorded by using the buffer layer. The values of P for compounds were determined by the following equation (Eq. 8):8 P=Ai−Af/Af×Vw/Vo

[44] = system: A498; test: NCI cytotoxicity screen, Renal Cancer panel; format: cell-based; details: Homo sapiens, single dose 10 µM, negative = lethal, read-out: Percent growth inhibition
Description: as §1

Fc1ccc(-c2cn3ccnc3c(-c3ccc4c(c3)ncn4C3CCCCC3)n2)cc1 [Compound 13, 8-(1-cyclohexyl-1H-benzo[d]imidazol-5-yl)-6-(4-fluorophenyl)imidazo[1,2-a]pyrazine]
inhibition at 10 µM [1]: 8.95% | inhibition at 10 µM [2]: < 1% | inhibition at 10 µM [3]: 13.2% | inhibition at 10 µM [4]: 7.05% | inhibition at 10 µM [5]: < 1% | inhibition at 10 µM [6]: 22.6% | inhibition at 10 µM [7]: 7.09% | inhibition at 10 µM [8]: 4.49% | inhibition at 10 µM [9]: < 1% | inhibition at 10 µM [10]: < 1% | inhibition at 10 µM [11]: 6.58% | inhibition at 10 µM [12]: 4.85% | inhibition at 10 µM [13]: 8.33% | inhibition at 10 µM [14]: < 1% | inhibition at 10 µM [15]: 7.3% | inhibition at 10 µM [16]: < 1% | inhibition at 10 µM [17]: 0.76% | inhibition at 10 µM [18]: 0.73% | inhibition at 10 µM [19]: 2.44% | inhibition at 10 µM [20]: < 1% | inhibition at 10 µM [21]: < 1% | inhibition at 10 µM [22]: < 1% | inhibition at 10 µM [23]: 6.3% | inhibition at 10 µM [24]: 2.9% | inhibition at 10 µM [25]: < 1% | inhibition at 10 µM [26]: 6.4% | inhibition at 10 µM [27]: 2.36% | inhibition at 10 µM [28]: 3.09% | inhibition at 10 µM [29]: < 1% | inhibition at 10 µM [30]: 3.12% | inhibition at 10 µM [31]: < 1% | inhibition at 10 µM [32]: < 1% | inhibition at 10 µM [33]: < 1% | inhibition at 10 µM [34]: 36% | inhibition at 10 µM [35]: < 1% | inhibition at 10 µM [36]: 22.8% | inhibition at 10 µM [37]: < 1% | inhibition at 10 µM [38]: < 1% | inhibition at 10 µM [39]: 9.59% | inhibition at 10 µM [40]: < 1% | inhibition at 10 µM [41]: < 1% | inhibition at 10 µM [42]: 10.1% | logP [43]: 1.26

c1ccc(-c2cn3ccnc3c(-c3ccc4c(c3)ncn4C3CCCCC3)n2)cc1 [Compound 9, 8-(1-cyclohexyl-1H-benzo[d]imidazol-5-yl)-6-phenylimidazo[1,2-a]pyrazine]
inhibition at 10 µM [1]: 9% | inhibition at 10 µM [2]: 2.51% | inhibition at 10 µM [3]: 12.9% | inhibition at 10 µM [4]: 10.9% | inhibition at 10 µM [5]: < 1% | inhibition at 10 µM [6]: 16.1% | inhibition at 10 µM [7]: < 1% | inhibition at 10 µM [8]: < 1% | inhibition at 10 µM [9]: 2.91% | inhibition at 10 µM [10]: 0.28% | inhibition at 10 µM [11]: 3.81% | inhibition at 10 µM [12]: 19.1% | inhibition at 10 µM [13]: 9.21% | inhibition at 10 µM [14]: < 1% | inhibition at 10 µM [15]: 5.7% | inhibition at 10 µM [16]: < 1% | inhibition at 10 µM [17]: 4.86% | inhibition at 10 µM [18]: 1.61% | inhibition at 10 µM [19]: 2.01% | inhibition at 10 µM [20]: < 1% | inhibition at 10 µM [21]: 0.53% | inhibition at 10 µM [22]: < 1% | inhibition at 10 µM [23]: < 1% | inhibition at 10 µM [24]: 5.71% | inhibition at 10 µM [25]: < 1% | inhibition at 10 µM [26]: < 1% | inhibition at 10 µM [27]: < 1% | inhibition at 10 µM [28]: < 1% | inhibition at 10 µM [29]: < 1% | inhibition at 10 µM [30]: 8.24% | inhibition at 10 µM [31]: < 1% | inhibition at 10 µM [44]: < 1% | inhibition at 10 µM [32]: < 1% | inhibition at 10 µM [34]: 23.3% | inhibition at 10 µM [35]: 4.83% | inhibition at 10 µM [36]: 20.9% | inhibition at 10 µM [37]: 0.43% | inhibition at 10 µM [38]: < 1% | inhibition at 10 µM [39]: 15.8% | inhibition at 10 µM [40]: 6.64% | inhibition at 10 µM [41]: < 1% | inhibition at 10 µM [42]: 25.5% | logP [43]: 1.59
